# Results taken from ChEMBL document CHEMBL5727810, “GLP-1 receptor agonists and uses thereof” (2020).
# Key:
# [1] = CHO GLP-1R Clone H6 Assay 1: GLP-1R-mediated agonist activity was determined with a cell-based functional assay utilizing an HTRF (Homogeneous Time-Resolved Fluorescence) cAMP detection kit (cAMP HI Range Assay Kit; CisBio cat #62AM6PEJ) that measures cAMP levels in the cell. The method is a competitive immunoassay between native cAMP produced by the cells and exogenous cAMP labeled with the dye …
# Description: The method is a competitive immunoassay between native cAMP produced by the cells and exogenous cAMP labeled with the dye d2. The tracer binding is visualized by a mAb anti-cAMP labeled with Cryptate. […] A 1 mL sample of the cell suspension in growth media was counted on a Becton Dickinson ViCell to determine cell viability and cell count per mL. […] Following the 30 minute incubation, 10 μL of labeled d2 cAMP and 10 μL of anti-cAMP antibody (both diluted 1:20 in cell lysis buffer; as described in the manufacturer's assay protocol) were added to each well of the assay plate. […] Raw data were converted to nM cAMP by interpolation from a cAMP standard curve (as described in the manufacturer's assay protocol) and the percent effect was determined relative to a saturating concentration of the full agonist GLP-17-36 (1 μM) included on each plate. EC50 determinations were made from agonist dose-response curves analyzed with a curve fitting program using a 4-parameter logistic dose response equation.
# [2] = CHO GLP-1R Clone C6 Assay 2: GLP-1R-mediated agonist activity was determined with a cell-based functional assay utilizing an HTRF (Homogeneous Time-Resolved Fluorescence) cAMP detection kit (cAMP HI Range Assay Kit; Cis Bio cat #62AM6PEJ) that measures cAMP levels in the cell. The method is a competitive immunoassay between native cAMP produced by the cells and exogenous cAMP labeled with the dye …
# Description: The method is a competitive immunoassay between native cAMP produced by the cells and exogenous cAMP labeled with the dye d2. The tracer binding is visualized by a mAb anti-cAMP labeled with Cryptate. The specific signal (i.e. energy transfer) is inversely proportional to the concentration of cAMP in either a standard or an experimental sample.The human GLP-1R coding sequence (NCBI Reference Sequence NP_002053.3, including naturally-occurring variant Leu260Phe) was subcloned into pcDNA5-FRT-TO and a clonal CHO cell line stably expressing a low receptor density was isolated using the Flp-In™ T-Rex™ System, as described by the manufacturer (ThermoFisher). […] Following the 30 minute incubation, 10 μL of labeled d2 cAMP and 10 μL of anti-cAMP antibody (both diluted 1:20 in cell lysis buffer; as described in the manufacturer's assay protocol) were added to each well of the assay plate. […] Raw data were converted to nM cAMP by interpolation from a cAMP standard curve (as described in the manufacturer's assay protocol) and the percent effect was determined relative to a saturating concentration of the full agonist GLP-1 (1 μM) included on each plate. EC50 determinations were made from agonist dose response curves analyzed with a curve fitting program using a 4-parameter logistic dose response equation.
SMILES,EC50 [1] [nM],EC50 [2] [nM]
COCCn1c(CN2CCN(c3cccc4c3O[C@@H](c3ccc(Cl)cc3F)O4)CC2)nc2ccc(C(=O)OC)cc21,6.6,260
"COCCn1c(CN2CCC(c3cccc4c3OC(c3ccc(Cl)cc3F)O4)CC2)nc2ccc(C(=O)O)cc21 (single isomer, unassigned)",–,> 20000
COCCn1c(C2CC23CCN(c2cccc4c2OC(C)(c2ccc(Cl)cc2F)O4)CC3)nc2ccc(C(=O)O)cc21 (configuration not stated),–,> 20000
COCCn1c([C@H]2CC23CCN(c2cccc4c2OC(C)(c2ccc(Cl)cc2F)O4)CC3)nc2ccc(C(=O)OC)cc21 (some centres not stated),7.7,120

# Now from value to molecule:
EC50 [1] [nM],EC50 [2] [nM],SMILES
> 18000,> 20000,COCCn1c([C@@H]2CC23CCN(c2cccc4c2OC(C)(c2ccc(Cl)cc2F)O4)CC3)nc2ccc(C(=O)OC)cc21 (some centres not stated)
4.5,38,C[C@]1(c2ccc(Cl)cc2F)Oc2cccc(C3CCN(Cc4nc5ccc(C(=O)O)cc5n4Cc4ncco4)CC3)c2O1
880,> 20000,COCCn1c(CN2CCN(c3cccc4c3O[C@H](c3ccc(Cl)cc3F)O4)CC2)nc2ccc(C(=O)OC)cc21
